Results as given in patent publication US20220153751A1, “BIFUNCTIONAL COMPOUNDS” (BioTheryX, Inc., priority 2018, published 2022).

Tests used:
Assay type in all cases: cell-based
[1] = target: T1, CK1α (Homo sapiens, UniProt P48729+Q96SW2); test: CK1α degradation assay (Western blot, MV-4-11 cells); settings: MV4-11, 6-8 h
T1 construct: Whole cell extracts were prepared using RIPA buffer; endogenous in cells; host or cells: MV-4-11
Procedure: MV-4-11 cells were grown in RPMI 1640 media supplemented with 10% fetal bovine serum, streptomycin and penicillin.
Cells were cultured at approximately 10^6 cells per mL and incubated in DMSO or the indicated compound for 6-8 h. Whole cell extracts were prepared using RIPA buffer according to manufacturer's protocol (Pierce). Briefly, 3×10^6 cells were washed once in PBS, the cell pellets were resuspended in RIPA buffer and allowed to incubate for 15 minutes on ice. Cells debris was removed by centrifugation and the cleared whole cell lysates were transferred to new tubes for further analysis.
For Western blot analysis, whole cell protein extracts were separated on 4-12% SDS-polyacrylamide gels, transferred to nitrocellulose and probed with the indicated primary antibodies. Membranes were subsequently washed and probed with the appropriate IRDye secondary antibodies (LI-COR). The signal was detected using the Odyssey Imaging System (LI-COR).
The following antibodies were used in these studies: Anti-eRF3/GSPT1: Abcam, ab126090 (Cambridge, Mass.); Anti-Ikaros: Abcam, ab191394 (Cambridge, Mass.); Anti-CK1α: Abcam, ab108296 (Cambridge, Mass.); Anti-CDK9: Santa Cruz Biotechnology, sc13130 (Dallas, Tex.); Anti-CDK16: Millipore Sigma, HPA001366 (St. Louis, Mo.); 3-actin (8H10comD10) mouse monoclonal antibody: Cell Signaling Technology, #3700 (Danvers, Mass.); IRDye 680RD Goat anti-rabbit antibody: LI-COR, 926-68071 (Lincoln, Nebr.); IRDye 800CW Goat anti-mouse antibody: LI-COR, 926-32210 (Lincoln, Nebr.).
CDK9 activities are shown in Table 4 at two different concentrations. CDK16 activities are shown in Table 5 at two different concentrations. In each of Tables 1-5, the % degradation values are reported as “A”, “B”, “C”, or “D”. “A” represents a % degradation value of less than 25% (value <25%). “B” represents a % degradation value of equal to or more than 25% and less than 50% (25%≤value<50%). “C” represents a % degradation value of equal to or more than 50% and less than 75% (50%≤value<75%). “D” represents a % degradation value of equal to or more than 75% (value ≥75%).

[2] = system: IL-1β; test: IL-1β inhibition assay, LPS-induced PBMCs / CD14+ monocytes (Meso Scale); settings: 1 h pretreatment, 100 ng/mL LPS 18-24 h
Outline: (§1)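 Thawed human PBMCs or CD14+ mobilized peripheral blood monocytes, 200,000 cells/well in RPMI-1640/10% FBS, pretreated with compound or DMSO 1 h, then stimulated with 100 ng/mL LPS for 18-24 h. Supernatant cytokine measured by Meso Scale; % inhibition binned A–D (<50%, 50–70%, 70–90%, ≥90%), fold-change binned A–D (≤0.1, ≤0.5, ≤1, >1).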

[3] = system: IL-6; test: IL-6 inhibition assay, LPS-induced PBMCs / CD14+ monocytes (Meso Scale); settings: 1 h pretreatment, 100 ng/mL LPS 18-24 h
Outline: as §1

[4] = system: TNF-α; test: TNF-α inhibition assay, LPS-induced PBMCs / CD14+ monocytes (Meso Scale); settings: 1 h pretreatment, 100 ng/mL LPS 18-24 h
Outline: as §1

[5] = system: IL-2; test: IL-2 fold-change assay, anti-CD3 stimulated PBMCs (Mesoscale); settings: PBMC, PBMCs on anti-human CD3, 24 h, fold difference from the DMSO control
Procedure: For the IL-2 analysis, 96 well plates were precoated with 1 μg/mL anti-human CD3 antibody (OK3, eBioscience Inc., San Diego, Calif.). After washing with PBS, the indicated compound was added (50 μL/well) followed by PBMCs diluted at 3-4 million cells/mL (150 μL/well). Plates were incubated for 24 h and the supernatants collected for Mesoscale IL-2 analysis. IL-2 activity is measured as fold difference from the DMSO control.
In Table 6, the % inhibition values are reported as “A”, “B”, “C”, or “D”. “A” represents a % inhibition value of less than 50% (value <50%). “B” represents a % inhibition value of equal to or more than 50% and less than 70% (50%≤value<70%). “C” represents a % inhibition value of equal to or more than 70% and less than 90% (70%≤value<90%). “D” represents a % inhibition value of equal or more than 90% (value ≥90%). In Table 7, the fold-change values are reported as “A”, “B”, “C”, or “D”. “A” represents a fold-change value of equal to or less than 0.1 (value ≤0.1). “B” represents a fold-change value of more than 0.1 and equal to or less than 0.5 (0.1<value≤0.5). “C” represents a fold-change value of more than 0.5 and equal to or less than 1 (0.5<value≤1). “D” represents a fold-change value of more than 1 (value >1).

[6] = system: MOLM-13 cells; test: MOLM-13 cell viability assay (CellTiter-Glo); settings: Homo sapiens, MOLM-13, 72 h, 3 days, read-out: MOLM-13 Cell Viability % DMSO at 1 μM
Outline: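 MOLM-13 cells at 2500 cells/well were exposed to compound for 3 days at 37 °C. Viability was read by CellTiter-Glo luminescence and expressed as % of DMSO control, binned A (<50%), B (50–<70%), C (70–<90%) or D (≥90%).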

[7] = target: T2, GSPT1 (Homo sapiens, UniProt P15170+Q96SW2); test: GSPT1 degradation assay (Western blot, MV-4-11 cells); settings: MV4-11, 6-8 h
T2 construct: Whole cell extracts were prepared using RIPA buffer; endogenous in cells; host or cells: MV-4-11
Outline: (§2)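 Cells at about 10^6 per mL were exposed to compound or DMSO for 6-8 h, lysed in RIPA buffer, and analysed by SDS-PAGE Western blot with IRDye secondary antibodies on an Odyssey imager. Values are % degradation binned as A <25%, B 25-<50%, C 50-<75%, D ≥75%.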

[8] = target: T3, IKAROS (Homo sapiens, UniProt Q13422+Q96SW2); test: IKAROS degradation assay (Western blot, MV-4-11 cells); settings: MV4-11, 6-8 h
T3 construct: endogenous in cells; host or cells: MV-4-11
Outline: as §2

T3 sequence (Q13422 whole entry): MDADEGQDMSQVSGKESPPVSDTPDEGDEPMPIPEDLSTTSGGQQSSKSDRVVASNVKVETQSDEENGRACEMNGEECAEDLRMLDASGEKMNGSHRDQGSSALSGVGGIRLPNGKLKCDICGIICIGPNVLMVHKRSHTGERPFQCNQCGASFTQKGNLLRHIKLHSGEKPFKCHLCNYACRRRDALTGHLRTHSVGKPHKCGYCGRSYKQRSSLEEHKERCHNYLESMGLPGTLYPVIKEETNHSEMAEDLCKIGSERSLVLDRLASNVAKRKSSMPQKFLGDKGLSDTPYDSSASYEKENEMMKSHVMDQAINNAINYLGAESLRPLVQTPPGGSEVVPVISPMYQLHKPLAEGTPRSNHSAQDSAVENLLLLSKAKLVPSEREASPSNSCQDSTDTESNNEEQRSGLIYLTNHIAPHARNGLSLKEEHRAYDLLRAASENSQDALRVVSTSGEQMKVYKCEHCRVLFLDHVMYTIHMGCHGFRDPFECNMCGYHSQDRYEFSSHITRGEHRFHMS
T3 sequence (Q96SW2 whole entry): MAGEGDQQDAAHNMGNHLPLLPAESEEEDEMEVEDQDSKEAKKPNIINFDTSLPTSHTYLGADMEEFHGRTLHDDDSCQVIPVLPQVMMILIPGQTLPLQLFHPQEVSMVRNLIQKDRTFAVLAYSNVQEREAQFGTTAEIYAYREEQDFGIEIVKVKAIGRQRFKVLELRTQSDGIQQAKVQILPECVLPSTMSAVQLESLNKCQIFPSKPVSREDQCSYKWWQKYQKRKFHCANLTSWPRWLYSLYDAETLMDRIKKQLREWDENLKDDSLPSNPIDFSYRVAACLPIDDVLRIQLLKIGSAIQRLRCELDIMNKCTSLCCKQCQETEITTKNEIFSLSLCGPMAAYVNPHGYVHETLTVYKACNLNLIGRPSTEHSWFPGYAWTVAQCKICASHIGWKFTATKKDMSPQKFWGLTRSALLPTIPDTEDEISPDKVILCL
T3 sequence (Q16531 whole entry partner): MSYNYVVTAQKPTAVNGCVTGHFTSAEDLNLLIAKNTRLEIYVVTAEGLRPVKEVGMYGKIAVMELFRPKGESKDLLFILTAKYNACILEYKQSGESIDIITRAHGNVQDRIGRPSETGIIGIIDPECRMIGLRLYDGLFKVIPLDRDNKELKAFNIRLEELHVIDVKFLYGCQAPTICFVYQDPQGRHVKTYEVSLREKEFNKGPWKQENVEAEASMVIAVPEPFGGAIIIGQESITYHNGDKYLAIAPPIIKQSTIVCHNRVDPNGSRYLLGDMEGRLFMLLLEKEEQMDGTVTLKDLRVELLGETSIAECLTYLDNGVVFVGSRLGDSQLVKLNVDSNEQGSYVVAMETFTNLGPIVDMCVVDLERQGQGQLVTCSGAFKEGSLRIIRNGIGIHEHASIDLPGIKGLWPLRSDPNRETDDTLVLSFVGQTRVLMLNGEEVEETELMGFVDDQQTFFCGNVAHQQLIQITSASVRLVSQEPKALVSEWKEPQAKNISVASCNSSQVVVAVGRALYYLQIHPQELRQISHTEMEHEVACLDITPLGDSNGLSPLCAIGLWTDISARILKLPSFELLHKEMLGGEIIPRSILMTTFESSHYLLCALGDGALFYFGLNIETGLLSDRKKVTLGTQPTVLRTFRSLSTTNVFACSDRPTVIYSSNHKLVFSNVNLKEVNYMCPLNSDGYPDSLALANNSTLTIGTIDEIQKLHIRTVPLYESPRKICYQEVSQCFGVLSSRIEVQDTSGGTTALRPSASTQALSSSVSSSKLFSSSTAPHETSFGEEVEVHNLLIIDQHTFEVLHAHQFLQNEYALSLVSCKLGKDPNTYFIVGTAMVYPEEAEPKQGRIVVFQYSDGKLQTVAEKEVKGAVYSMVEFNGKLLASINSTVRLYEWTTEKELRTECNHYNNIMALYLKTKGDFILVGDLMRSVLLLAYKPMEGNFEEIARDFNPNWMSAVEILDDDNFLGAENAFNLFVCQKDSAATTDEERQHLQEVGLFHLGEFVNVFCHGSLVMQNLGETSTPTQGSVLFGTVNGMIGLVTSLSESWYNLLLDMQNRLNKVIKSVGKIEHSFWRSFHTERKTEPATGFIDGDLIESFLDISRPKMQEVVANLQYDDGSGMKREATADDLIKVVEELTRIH
T1 sequence (P48729 whole entry): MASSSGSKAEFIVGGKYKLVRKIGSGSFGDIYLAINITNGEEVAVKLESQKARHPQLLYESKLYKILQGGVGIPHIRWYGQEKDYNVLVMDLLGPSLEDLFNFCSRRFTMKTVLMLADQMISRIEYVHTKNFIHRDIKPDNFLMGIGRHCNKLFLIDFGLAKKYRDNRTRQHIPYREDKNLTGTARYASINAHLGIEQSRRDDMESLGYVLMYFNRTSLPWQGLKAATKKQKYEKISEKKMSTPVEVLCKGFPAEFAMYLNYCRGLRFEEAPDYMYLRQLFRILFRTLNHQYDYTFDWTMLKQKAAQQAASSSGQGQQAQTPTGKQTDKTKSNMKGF
T1 sequence (Q96SW2 whole entry): as the sequence (Q96SW2 whole entry) above
T1 sequence (Q16531 whole entry partner): as the sequence (Q16531 whole entry partner) above
T2 sequence (P15170 whole entry): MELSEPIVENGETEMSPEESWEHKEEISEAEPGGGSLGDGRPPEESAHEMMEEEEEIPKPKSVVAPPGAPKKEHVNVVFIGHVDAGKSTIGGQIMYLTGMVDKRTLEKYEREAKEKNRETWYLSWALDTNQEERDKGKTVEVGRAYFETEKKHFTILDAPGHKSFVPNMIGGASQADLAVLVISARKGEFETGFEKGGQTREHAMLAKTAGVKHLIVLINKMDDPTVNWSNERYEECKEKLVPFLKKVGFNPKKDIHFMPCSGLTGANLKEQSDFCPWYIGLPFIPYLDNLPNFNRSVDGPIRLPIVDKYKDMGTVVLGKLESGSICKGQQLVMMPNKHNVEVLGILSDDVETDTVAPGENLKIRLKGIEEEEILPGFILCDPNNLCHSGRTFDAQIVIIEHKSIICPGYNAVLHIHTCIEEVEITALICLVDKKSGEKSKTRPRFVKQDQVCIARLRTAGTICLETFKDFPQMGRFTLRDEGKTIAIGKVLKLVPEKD
T2 sequence (Q96SW2 whole entry): as the sequence (Q96SW2 whole entry) above
T2 sequence (Q16531 whole entry partner): as the sequence (Q16531 whole entry partner) above

SMILES	Dmax at 1 µM [1] [%]	inhibition at 1 µM [2] [%]	inhibition at 1 µM [3] [%]	inhibition at 1 µM [4] [%]	fold induction at 1 µM [5]	viability at 1 µM [6] [%]	Dmax at 1 µM [7] [%]	Dmax at 1 µM [8] [%]
CC(C)(C)c1cnc(CSc2cnc(NC(=O)C3CCN(CC(=O)NCCOCCNC(=O)NCc4cc5c(s4)C(=O)N(C4CCC(=O)NC4=O)C5)CC3)s2)o1 (stereo not shown) [Compound 3, 3-{8-Oxo-3-[(3-{2-[2-(2-{4-[(5-{[5-(tert-butyl)-1,3-oxazol-2-yl]methylthio}-1,3-thiazol-2-ylamino)carbonyl]-1-piperidyl}acetylamino)ethoxy]ethyl}ureido)methyl]-2-thia-7-azabicyclo[3.3.0]octa-1(5),3-dien-7-yl}-2,6-piperidinedione]	25 to 50	> 90	> 90	70 to 90	0.1 to 0.5	> 90		
Cn1ncc(-c2nc(N[C@H]3CC[C@H](NC(=O)CCCCCCNCC(=O)Nc4cccc5c4CN([C@H]4CCCC(=O)NC4=O)C5=O)CC3)ncc2Cl)c1CC1CC1 [Compound 9, N-((1r,4r)-4-((5-chloro-4-(5-(cyclopropylmethyl)-1-methyl-1H-pyrazol-4-yl)pyrimidin-2-yl)amino)cyclohexyl)-7-((2-((2-((S)-2,7-dioxoazepan-3-yl)-1-oxoisoindolin-4-yl)amino)-2-oxoethyl)amino)heptanamide]	< 25	50 to 70	< 50	50 to 70	0.5 to 1	< 50	50 to 75	
CC(C)(C)c1cnc(CSc2cnc(NC(=O)C3CCN(CC(=O)NCCCCCCCNC(=O)NCc4cc5c(s4)C(=O)N(C4CCC(=O)NC4=O)C5)CC3)s2)o1 (stereo not shown) [Compound 18, N-(5-(((5-(tert-butyl)oxazol-2-yl)methyl)thio)thiazol-2-yl)-1-(2-((7-(3-((5-(2,6-dioxopiperidin-3-yl)-6-oxo-5,6-dihydro-4H-thieno[2,3-c]pyrrol-2-yl)methyl)ureido)heptyl)amino)-2-oxoethyl)piperidine-4-carboxamide]	50 to 75	> 90	> 90	70 to 90	≤ 0.1	> 90	50 to 75	25 to 50
Cn1ncc(-c2nc(N[C@H]3CC[C@H](NCC(=O)NCCCCNCC(=O)NCc4cc5c(s4)C(=O)N(C4CCC(=O)NC4=O)C5=O)CC3)ncc2F)c1CC1CC1 (stereo partly shown) [Compound 37, 2-(((1r,4r)-4-((4-(5-(cyclopropylmethyl)-1-methyl-1H-pyrazol-4-yl)-5-fluoropyrimidin-2-yl)amino)cyclohexyl)amino)-N-(4-((2-(((5-(2,6-dioxopiperidin-3-yl)-4,6-dioxo-5,6-dihydro-4H-thieno[2,3-c]pyrrol-2-yl)methyl)amino)-2-oxoethyl)amino)butyl)acetamide]	25 to 50	> 90	> 90	70 to 90	0.1 to 0.5	50 to 70	50 to 75	25 to 50
Cn1ncc(-c2nc(N[C@H]3CC[C@H](NCC(=O)NCCCCNCC(=O)NCc4scc5c4C(=O)N(C4CCC(=O)NC4=O)C5=O)CC3)ncc2Cl)c1CC1CC1 (stereo partly shown) [Compound 51, 2-(((1r,4r)-4-((5-chloro-4-(5-(cyclopropylmethyl)-1-methyl-1H-pyrazol-4-yl)pyrimidin-2-yl)amino)cyclohexyl)amino)-N-(4-((2-(((5-(2,6-dioxopiperidin-3-yl)-4,6-dioxo-5,6-dihydro-4H-thieno[3,4-c]pyrrol-1-yl)methyl)amino)-2-oxoethyl)amino)butyl)acetamide]	25 to 50	> 90	> 90	> 90	≤ 0.1	> 90	25 to 50	50 to 75
Cn1ncc(-c2nc(N[C@H]3CC[C@H](NCC(=O)NCCOCCOCCOCCNc4cccc5c4CN(C4CCC(=O)NC4=O)C5=O)CC3)ncc2F)c1CC1CC1 (stereo partly shown) [Compound 56, 2-(((1r,4r)-4-((4-(5-(cyclopropylmethyl)-1-methyl-1H-pyrazol-4-yl)-5-fluoropyrimidin-2-yl)amino)cyclohexyl)amino)-N-(2-(2-(2-(2-((2-(2,6-dioxopiperidin-3-yl)-1-oxoisoindolin-4-yl)amino)ethoxy)ethoxy)ethoxy)ethyl)acetamide]	25 to 50	> 90	> 90	> 90	≤ 0.1	> 90		50 to 75
CC(C)(C)c1cnc(CSc2cnc(NC(=O)C3CCN(CCOCCOCCOCCOCCNCC(=O)NCc4scc5c4CN(C4CCC(=O)NC4=O)C5=O)CC3)s2)o1 (stereo not shown) [Compound 58, N-(5-(((5-(tert-butyl)oxazol-2-yl)methyl)thio)thiazol-2-yl)-1-(1-(5-(2,6-dioxopiperidin-3-yl)-4-oxo-5,6-dihydro-4H-thieno[3,4-c]pyrrol-1-yl)-3-oxo-8,11,14,17-tetraoxa-2,5-diazanonadecan-19-yl)piperidine-4-carboxamide]	≥ 75	> 90	70 to 90	< 50	0.5 to 1	50 to 70		< 25
Cn1ncc(-c2ncnc(N[C@H]3CC[C@H](NCCCCCCCCNC(=O)NCc4cc5c(s4)C(=O)N(C4CCC(=O)NC4=O)C5)CC3)n2)c1CC1CC1 (stereo partly shown) [Compound 65, 1-(8-(((1r,4r)-4-((4-(5-(cyclopropylmethyl)-1-methyl-1H-pyrazol-4-yl)-1,3,5-triazin-2-yl)amino)cyclohexyl)amino)octyl)-3-((5-(2,6-dioxopiperidin-3-yl)-6-oxo-5,6-dihydro-4H-thieno[2,3-c]pyrrol-2-yl)methyl)urea]	50 to 75	< 50	< 50	< 50	0.5 to 1	< 50	25 to 50	
